Patent US10449177B2, “Methods of treating mild cognitive impairment (MCI) and related disorders” (Buck Institute for Research on Aging, priority 2010, dated 2019)

Key:
[1] = Brain uptake testing (PK): plasma and brain levels by LC/MS/MS; design: species or system mice; conditions: mouse, in vivo, sc
Protocol: Brain uptake testing (PK): In general, CNS exposure studies consisted of collection of heparinized plasma and brains after treatment with tropisetron, nimetazepam, disulfuram and honokiol following subcutaneous (sc) administration of the molecules at 10 mg/kg. Plasma and brain levels of the compounds were determined by quantitative LC/MS/MS methodology, conducted at Integrated Analytical Solutions (on the internet at ianalytical.net). Plasma samples were precipitated with acetonitrile:methanol (1:1) cocktail containing an internal standard. The brain samples were homogenized directly in ethylacetate or extracted from 5M guanidine homogenates using the liquid-liquid method. The resulting supernatant were evaporated to dryness and subjected to the LC/MS/MS analysis. For each compound 3 mice were used for analysis. The brain-to-plasma ratios and brain levels were then be calculated to identify the best candidate(s) for further testing.

APP = test: sAPPα, Aβ40 and Aβ42 levels in brain (PD) of APP transgenic (PDAPP) mice; assay type: in vivo; conditions: Tg mice; for Aβ40 levels / Aβ42 levels / sAPPα levels in hippocampus (Hip) and entorhinal cortex (ECx): 10 mpk sc, 5 days
Protocol: […] Analysis: […]® kits from Perkin Elmer (PE) were used to quantify sAPPα (cat#: AL254C), sAPPβ (cat#: AL232C), Aβ40 (cat #: AL275C), Aβ42 (cat#: AL276C) and Tau (cat#: AL271C) from brain homogenates. The samples are added to an AlphaPlate-384 (cat#: 6005350). Twenty microliters (μl) of acceptor bead antibody mix was added to each five μl cerebrospinal fluid (CSF) sample and allowed to incubate for one hour at room temperature. Next, 25 μl of donor beads were added and allowed to incubate in the dark for 30 minutes at room temperature. Fluorescence was then measured on an EnsPire 96-well plate reader (Perkin-Elmer).
ELISA assays: ELISA kits from Invitrogen were also used to quantify Aβ1-40 (KHB3481) and Aβ1-42 (KHB3544) in duplicate from the CSF samples stored at −80° C. For assay, samples were thawed on ice and BSL-2 precautions practiced at all times. For the human Aβ 1-42 ultrasensitive ELISA, samples were diluted 1:2 (50 μl CSF plus 50 μl kit-provided standard diluent buffer). For the human Aβ1-40 ELISA, samples were diluted 1:15 (6.7 μl CSF plus […] of standard diluent buffer). Assays were performed according to manufacturer's instructions. In short, standards and samples were added to a plate pre-coated with a monoclonal capture antibody specific for the amino terminus of Hu Aβ. The samples were co-incubated with a rabbit detection antibody (Ab) specific for the carboxy terminus of the Aβ species being assayed for 3 hr at room temperature (Aβ 1-40) to overnight at 4° (Aβ 1-42) with gentle rocking After washing, bound rabbit Ab was detected using a horseradish peroxidase-labeled anti-rabbit secondary Ab. After washing again, bound HRP-anti rabbit Ab was detected colorimetrically (Spectramax 190, Molecular Devices) by the addition of a substrate solution. 1 mM 4-(2-Aminoethyl)benzenesulfonyl fluoride hydrochloride (AEBSF) protease inhibitor (101500, Calbiochem) was added to standards and samples.
In case of tropisetron the testing was done at 0.3 mpk, while in case of the other compounds (e.g., nimetazepam, disulfuram and honokiol) it was done at 10 mpk. From the collected brains the hippocampi were dissected. Levels of sAPPα, and Aβ1-40, Aβ1-42 and APPneo were measured by […] assay ([…] Perkin-Elmer), and Aβ1-40, Aβ1-42 (Invitrogen, sensitive ELISA kit) in brain homogenates of Tg mice. All procedures involved have been described (Galavan 2006, Proc Natl Acad Sci USA, 103, 7130-7135). […] The brain-to-plasma ratio (PK) of tropisetron and sAPPalpha/Aβ42 ratios (PD) were then determined.

[2] = stated as known for the benzodiazepine; cited from earlier work
MBP-eAPP230-624 = target: T1, MBP-eAPP230-624 (Homo sapiens, UniProt P05067); test: Small-angle X-ray scattering of MBP-eAPP230-624 incubated with compound; assay type: binding; conditions: for Dmax (Å) ± 10 / MWcalc/MWseq ± 0.2 / Rg (Å) ± 2 / binding to MBP-eAPP230-624 / APP and effect on conformation or dimerization: 50 μM compound; for Dmax (Å) ± 10 / MWcalc/MWseq ± 0.2 / Rg (Å) ± 2: MBP-eAPP230-624, 4° C., 1 hour; for binding to MBP-eAPP230-624 / APP and effect on conformation or dimerization: small-angle X-ray scattering
T1 construct: 100 μg of purified MBP-eAPP230-624 were incubated with 50 μM Disulfuram
Protocol: X-ray scattering data collection: To 100 μg of purified MBP-eAPP230-624 were incubated with 50 μM Disulfuram or 50 μM Sulfiram in 20 mM sodium phosphate pH 7.4, 137 mM sodium chloride, 0.05% dimethyl sulfoxide at 4° C. for 1 hour. The control sample was incubated in the buffer alone. The samples were then concentrated to approximately 1.5 mg/ml using […] NML concentrators. Small-angle X-ray scattering data were collected using protein concentrations in the range of 0.25-1.5 mg/ml and an X-ray wavelength of 1.11 Å at beam line 12.3.1 (Advanced Light Source). Samples of the filtrate were used for buffer subtraction. Data were integrated with software customized for the beam line and processed with the program PRIMUS (Konarev (2003) Journal of Applied Crystallography 36, 1277-1282). The program GNOM (Svergun, (1992) J. Appl. Crystallogr. 25, 495-503) was used to calculate the maximum dimension and the radius of gyration and to estimate the intensity of the scattering at zero angle for higher concentration samples. The molecule weight of each protein was calculated by comparing to the scattering of proteins of known molecule weight.

[3] = system: 7 W cells stably transfected with APP; test: […] sAPPα assay in 7 W APP transfected cells; assay type: cell-based; conditions: 7 W CHO cells, 1 μM compound, 24 h
Protocol: In vitro compound testing assay: 7 W CHO cells were seeded at 50,000 cells/well in a 96 wells plate for 24 h. Then their medium was changed for fresh medium supplemented with 1 μM compounds (e.g., tropisetron, disulfuram, honokiol, and/or nimetazepam). After 24 h, 20 μl of the medium was added to 2 μl of the complete protease inhibitor with 1 μM EDTA and kept at 4° C. until analysis. 2 μl of that medium was treated with the Perkin Elmer (PE) […]® Aβ kit to determine the amount of Aβ42 secreted by the cells in 24 h using the PE-Enspire reader. Another aliquot of 2 μl of the medium was diluted with 50 μl of the PE […]® buffer and was treated with the PE […]® sAPPα kit to determine the amount of sAPPα secreted by the cells in 24 h. For the assay, 2 μl of the final mixture was treated with the acceptor bead and the donor antibody followed by addition of the donor beads and the […]® signal was measured using a PE-Enspire reader. For measurement of APPneo, the 50,000 cells were treated after seeding with fresh medium supplemented with or without the compound, but without fetal bovine serum (FBS), in order to induce the formation of the APPneo fragment. […]

[4] = Degradation in brain tissue; assay type: in vitro ADME

T1 sequence (P05067 230-624 isoform P05067-4): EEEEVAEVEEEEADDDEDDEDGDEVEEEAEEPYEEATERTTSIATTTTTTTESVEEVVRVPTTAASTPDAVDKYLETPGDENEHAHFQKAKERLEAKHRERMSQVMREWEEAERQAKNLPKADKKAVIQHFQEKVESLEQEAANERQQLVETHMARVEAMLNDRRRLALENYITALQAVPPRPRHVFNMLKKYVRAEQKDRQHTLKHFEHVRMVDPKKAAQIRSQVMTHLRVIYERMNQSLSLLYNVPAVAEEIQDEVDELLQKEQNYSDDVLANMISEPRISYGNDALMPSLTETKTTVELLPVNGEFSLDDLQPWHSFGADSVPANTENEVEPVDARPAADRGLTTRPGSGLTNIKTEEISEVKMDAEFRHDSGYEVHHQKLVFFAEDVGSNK

SMILES	blood-brain-barrier / brain penetration [1]	Aβ40 levels (APP)	Aβ42 levels (APP)	sAPPα levels in hippocampus (Hip) and entorhinal cortex (ECx) (APP)	sAPPα levels in hippocampus (Hip) and entorhinal cortex (ECx) (APP; 10 mg/kg)	sAPPα levels in hippocampus (Hip) and entorhinal cortex (ECx) (APP; listed as nimetazepam, 10 mg/kg)	blood-brain-barrier penetration (known) [2]	Dmax (Å) ± 10 (MBP-eAPP230-624) [Å]	MWcalc/MWseq ± 0.2 (MBP-eAPP230-624)	Rg (Å) ± 2 (MBP-eAPP230-624) [Å]	binding affinity relative to sulfuram (MBP-eAPP230-624; inferred from greater effect in X-ray scattering)	binding to MBP-eAPP230-624 / APP and effect on conformation or dimerization (MBP-eAPP230-624; listed as Disulfuram)	binding to MBP-eAPP230-624 / APP and effect on conformation or dimerization (MBP-eAPP230-624; listed as disulfuram)	Aβ levels (APP; 10 mpk)	sAPPα levels secreted by cells [3]	stability in brain tissue [4]	binding to MBP-eAPP230-624 / APP and effect on conformation or dimerization (MBP-eAPP230-624)
C=CCc1ccc(O)c(-c2ccc(O)c(CC=C)c2)c1 [honokiol, 2-(4-hydroxy-3-prop-2-enyl-phenyl)-4-prop-2-enyl-phenol]	penetrates the brain well	No significant changes	No significant changes	no significant increase	–	–	–	–	–	–	–	–	–	–	–	–	–
CN1C(=O)CN=C(c2ccccc2)c2cc([N+](=O)[O-])ccc21 [Nimetazepam, 2-methyl-9-nitro-6-phenyl-2,5-diazabicyclo[5.4.0] undeca-5,8,10,12-tetraen-3-one]	–	No significant changes	No significant changes	–	significant increase	increase	cross the blood-brain-barrier well	–	–	–	–	–	–	–	–	–	–
CCN(CC)C(=S)SSC(=S)N(CC)CC [Disulfiram, 1,1′,1″,1′″-[disulfanediylbis(carbonothioylnitrilo)]tetraethane]	low blood-brain-barrier penetration	–	–	no changes	–	–	–	160	1.5	51	higher binding affinity	can bind to APP and disrupt APP dimerization	bind to MBP-eAPP230-624 and alter the conformation of the protein	no changes	increase	degrades rapidly in brain tissue	–
CCN(CC)C(=S)SC(=S)N(CC)CC [Sulfiram]	–	–	–	–	–	–	–	170	1.7	53	–	–	–	–	–	–	bind to MBP-eAPP230-624 and alter the conformation of the protein
